Assay results as given in patent US12600725B2 (Memorial Sloan-Kettering Cancer Center, priority 2013, dated 2026).
pIC50: −log10 of the molar value.

Legend:
[1] = target: Hsp90α (Homo sapiens, UniProt P07900); experiment: biochemical; conditions: FP competition, 6 nM Cy3B-GM, 10 nM protein, 4° C. for 24 h
[2] = target: Grp94 (Canis lupus familiaris, UniProt P41148); conditions: read-out: Grp94; FP competition, 6 nM Cy3B-GM, 10 nM protein, 4° C. for 24 h
Sequence of Grp94 (P41148 with tags, fused parts or gaps DELINS287-327GGGG): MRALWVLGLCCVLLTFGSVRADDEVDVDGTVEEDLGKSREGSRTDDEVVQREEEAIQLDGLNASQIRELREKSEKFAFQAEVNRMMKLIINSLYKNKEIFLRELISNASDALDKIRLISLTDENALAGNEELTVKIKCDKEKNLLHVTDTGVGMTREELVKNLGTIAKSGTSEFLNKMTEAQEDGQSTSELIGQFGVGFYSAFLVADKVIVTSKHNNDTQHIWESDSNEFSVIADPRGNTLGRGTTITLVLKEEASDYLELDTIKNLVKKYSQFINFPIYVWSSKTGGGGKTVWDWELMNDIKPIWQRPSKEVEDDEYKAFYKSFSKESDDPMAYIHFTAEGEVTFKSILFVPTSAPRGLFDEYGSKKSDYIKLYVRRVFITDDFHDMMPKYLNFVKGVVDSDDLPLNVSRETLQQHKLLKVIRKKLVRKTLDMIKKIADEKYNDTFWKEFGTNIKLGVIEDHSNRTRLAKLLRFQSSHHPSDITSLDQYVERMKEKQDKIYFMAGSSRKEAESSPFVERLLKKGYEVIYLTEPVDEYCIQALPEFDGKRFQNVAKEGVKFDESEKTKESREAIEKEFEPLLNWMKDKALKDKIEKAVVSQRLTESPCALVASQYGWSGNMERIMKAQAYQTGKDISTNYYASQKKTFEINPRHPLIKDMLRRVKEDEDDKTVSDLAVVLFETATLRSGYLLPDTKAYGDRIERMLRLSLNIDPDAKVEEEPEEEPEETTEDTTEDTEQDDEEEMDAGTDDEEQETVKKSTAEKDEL

SMILES | pIC50 [1] | pIC50 [2]
Nc1ncn(CCCC(F)(F)F)c2nc(Sc3cc(Cl)cc(Cl)c3)nc1-2 | < 4.30 | < 5.00
CC(O)CNCCn1c(Sc2ccc(Cl)cc2Cl)nc2c(N)ncnc21 (stereo not drawn) [HJP-V-82, 1-((2-(6-Amino-8-((2,4-dichlorophenyl)thio)-9H-purin-9-yl)ethyl)amino)propan-2-ol] | 4.50 | 6.64
CC(CO)NCCn1c(Sc2ccc(Cl)cc2Cl)nc2c(N)ncnc21 (stereo not drawn) [HJP-V-86, 2-((2-(6-Amino-8-((2,4-dichlorophenyl)thio)-9H-purin-9-yl)ethyl)amino)propan-1-ol] | 5.12 | 6.68
Nc1ncnc2c1nc(Sc1ccc(Cl)cc1Cl)n2CCc1ccccn1 [HJP-V-93, 8-((2,4-Dichlorophenyl)thio)-9-(2-(pyridin-2-yl)ethyl)-9H-purin-6-amine] | < 4.30 | 5.72
Nc1ncnc2c1nc(Sc1ccc(Cl)cc1Cl)n2CCc1ccccc1F [HJP-V-96, 8-((2,4-Dichlorophenyl)thio)-9-(2-fluorophenethyl)-9H-purin-6-amine] | < 4.30 | 5.72
Nc1ncnc2c1nc(Sc1ccc(Cl)cc1Cl)n2CCc1ccccc1Cl [HJP-V-97, 9-(2-Chlorophenethyl)-8-((2,4-dichlorophenyl)thio)-9H-purin-6-amine] | 3.73 | 5.66
Nc1ncnc2c1nc(Sc1ccc(Cl)cc1Cl)n2CCc1ccccc1C(F)(F)F [HJP-V-98, 8-((2,4-Dichlorophenyl)thio)-9-(2-(trifluoromethyl)phenethyl)-9H-purin-6-amine] | < 4.30 | 6.15
CC(C)NCCCn1c(Sc2cc(Cl)c(Cl)cc2Cl)nc2c(N)ncnc21 [HJP-V-103-N9, 9-(3-(Isopropylamino)propyl)-8-((2,4,5-trichlorophenyl)thio)-9H-purin-6-amine] | 5.24 | 6.46
C[C@@H](O)CNCCn1c(Sc2ccc(Cl)cc2Cl)nc2c(N)ncnc21 [HJP-V-104, 1(R)-1-((2-(6-Amino-8-((2,4-dichlorophenyl)thio)-9H-purin-9-yl)ethyl)amino)propan-2-ol] | 4.25 | 5.82
CCCC(C)n1c(Sc2ccc(Cl)cc2Cl)nc2c(N)ncnc21 (stereo not drawn) [HJP-V-114, 8-((2,4-Dichlorophenyl)thio)-9-(pentan-2-yl)-9H-purin-6-amine] | < 4.30 | 5.61
Nc1ncnc2c1nc(Sc1ccc(Cl)cc1Cl)n2CCc1cccnc1 [HJP-V-116, 8-((2,4-Dichlorophenyl)thio)-9-(2-(pyridin-3-yl)ethyl)-9H-purin-6-amine] | < 4.30 | 6.52 to 6.92
C#CCC(CC)n1c(Sc2ccc(Cl)cc2Cl)nc2c(N)ncnc21 (stereo not drawn) [HJP-V-117, 8-((2,4-dichlorophenyl)thio)-9-(hex-5-yn-3-yl)-9H-purin-6-amine] |  | 6.04
Nc1ncnc2c1nc(Sc1ccc(Cl)cc1Cl)n2CCc1ccncc1 [HJP-V-118, 8-((2,4-Dichlorophenyl)thio)-9-(2-(pyridin-4-yl)ethyl)-9H-purin-6-amine] | < 4.30 | 5.99
Nc1ncnc2c1nc(Sc1cc(Cl)cc(I)c1)n2CCc1cccnc1 [HJP-V-147, 8-((3-chloro-5-iodophenyl)thio)-9-(2-(pyridin-3-yl)ethyl)-9H-purin-6-amine] | 4.14 | 6.07
COc1ccc(-c2cc(Cl)cc(Sc3nc4c(N)ncnc4n3CCCNC(C)C)c2)cc1 [HJP-VI-3, 8-((5-chloro-4′-methoxy-[1,1′-biphenyl]-3-yl)thio)-9-(3-(isopropylamino)propyl)-9H-purin-6-amine] | < 4.60 | 5.57
CC(C)NCCCn1c(Sc2ccc(F)cc2Cl)nc2c(N)ncnc21 [HJP-VI-25, 8-((2-chloro-4-fluorophenyl)thio)-9-(3-(isopropylamino)propyl)-9H-purin-6-amine] | < 4.30 | 
CC(C)NCCCn1c(Sc2ccc(Cl)cc2N)nc2c(N)ncnc21 [HJP-VI-34, 8-((2-amino-4-chlorophenyl)thio)-9-(3-(isopropylamino)propyl)-9H-purin-6-amine] | < 4.30 | 
CC(C)NCCCn1c(Sc2cc(Cl)cc(Cl)c2)nc2c(N)nc(F)nc21 [HJP-VI-69, 8-((3,5-dichlorophenyl)thio)-2-fluoro-9-(3-(isopropylamino)propyl)-9H-purin-6-amine] |  | 6.87

Results, then the molecule that gave them:

pIC50 [1] | pIC50 [2] | SMILES
4.22 |  | C#CCCCn1c(Sc2cc(C#N)cc(C#N)c2)nc2c(N)ncnc21 [HJP-III-26, 5-((6-Amino-9-(pent-4-yn-1-yl)-9H-purin-8-yl)thio)isophthalonitrile]
5.35 | 5.62 | C#CCCCn1c(Sc2ccc(C#N)c(C(F)(F)F)c2)nc2c(N)ncnc21 [HJP-III-29, 4-((6-Amino-9-(pent-4-yn-1-yl)-9H-purin-8-yl)thio)-2-(trifluoromethyl)benzonitrile]
4.84 | 5.37 | C#CCCCn1c(Sc2ccc(C#N)c(Br)c2)nc2c(N)ncnc21 [HJP-III-32, 4-((6-Amino-9-(pent-4-yn-1-yl)-9H-purin-8-yl)thio)-2-bromobenzonitrile]
5.12 | 5.46 | C#CCCCn1c(Sc2ccc(C#N)c(Cl)c2)nc2c(N)ncnc21 [HJP-III-33, 4-((6-Amino-9-(pent-4-yn-1-yl)-9H-purin-8-yl)thio)-2-chlorobenzonitrile]
< 5.00 | < 5.30 | C#CCCCn1c(Cc2c(C)cc(C)cc2C)nc2c(N)ncnc21 [HJP-V-36, 9-(Pent-4-yn-1-yl)-8-(2,4,6-trimethylbenzyl)-9H-purin-6-amine]
< 5.00 | 6.15 | C#CCCCn1c(Cc2ccc(Cl)cc2Cl)nc2c(N)ncnc21 [HJP-V-37, 8-(2,4-Dichlorobenzyl)-9-(pent-4-yn-1-yl)-9H-purin-6-amine]
< 4.60 | 6.77 to 6.89 | C#CCCCn1c(C(=O)c2ccc(Cl)cc2Cl)nc2c(N)ncnc21 [HJP-V-37T, (6-Amino-9-(pent-4-yn-1-yl)-9H-purin-8-yl)(2,4-dichlorophenyl)methanone]
4.84 | 4.86 | C#CCCCn1c(Cc2c(Cl)cccc2Cl)nc2c(N)ncnc21 [HJP-V-38, 8-(2,6-Dichlorobenzyl)-9-(pent-4-yn-1-yl)-9H-purin-6-amine]
< 5.00 | 6.30 | C#CCCCn1c(Cc2cc(Cl)cc(Cl)c2)nc2c(N)ncnc21 [HJP-V-39, 8-(3,5-Dichlorobenzyl)-9-(pent-4-yn-1-yl)-9H-purin-6-amine]
< 5.00 |  | C#CCCCn1c(C(=O)c2cc(Cl)cc(Cl)c2)nc2c(N)ncnc21 [HJP-V-39T, (6-Amino-9-(pent-4-yn-1-yl)-9H-purin-8-yl)(3,5-dichlorophenyl)methanone]
< 5.00 | 6.30 | C#CCCCn1c(Oc2ccc(Cl)cc2Cl)nc2c(N)ncnc21 [HJP-V-45, 8-(2,4-Dichlorophenoxy)-9-(pent-4-yn-1-yl)-9H-purin-6-amine]
< 5.00 | 6.12 | C#CCCCn1c(Cc2cc(Cl)ccc2Cl)nc2c(N)ncnc21 [HJP-V-54, 8-(2,5-Dichlorobenzyl)-9-(pent-4-yn-1-yl)-9H-purin-6-amine]
< 5.00 |  | C#CCCCn1c(Cc2cccc(Cl)c2Cl)nc2c(N)ncnc21 [HJP-V-55, 8-(2,3-Dichlorobenzyl)-9-(pent-4-yn-1-yl)-9H-purin-6-amine]
4.62 | 5.27 | C#CCCCn1c([S+]([O-])c2ccc(Cl)cc2Cl)nc2c(N)ncnc21 (stereo not drawn) [HJP-V-62M, 8-((2,4-Dichlorophenyl)sulfinyl)-9-(pent-4-yn-1-yl)-9H-purin-6-amine]
< 4.60 | 5.33 | C#CCCCn1c(S(=O)(=O)c2ccc(Cl)cc2Cl)nc2c(N)ncnc21 [HJP-V-62T, 8-((2,4-Dichlorophenyl)sulfonyl)-9-(pent-4-yn-1-yl)-9H-purin-6-amine]
< 4.30 | 6.46 | C[C@H](O)CNCCn1c(Sc2ccc(Cl)cc2Cl)nc2c(N)ncnc21 [HJP-V-105, 1(S)-1-((2-(6-Amino-8-((2,4-dichlorophenyl)thio)-9H-purin-9-yl)ethyl)amino)propan-2-ol]
< 4.30 | 6.22 | C#CCN(CCO)CCn1c(Sc2ccc(Cl)cc2Cl)nc2c(N)ncnc21 [HJP-V-110, 2-((2-(6-Amino-8-((2,4-dichlorophenyl)thio)-9H-purin-9-yl)ethyl)(prop-2-yn-1-yl)amino)ethanol]
4.29 | 6.43 | CC(O)CNCCCn1c(Sc2cc(Cl)cc(Cl)c2)nc2c(N)ncnc21 (stereo not drawn) [HJP-V-130, 1-((3-(6-amino-8-((3,5-dichlorophenyl)thio)-9H-purin-9-yl)propyl)amino)propan-2-ol]
4.58 | 6.09 | C#CCN(CCO)CCCn1c(Sc2cc(Cl)cc(Cl)c2)nc2c(N)ncnc21 [HJP-V-132, 2-((3-(6-amino-8-((3,5-dichlorophenyl)thio)-9H-purin-9-yl)propyl)(prop-2-yn-1-yl)amino)ethanol]
< 5.00 | 6.42 | Nc1ncnc2c1nc(Sc1cc(Cl)cc(Cl)c1)n2CCCN1CC(O)C1 [HJP-V-134, 1-(3-(6-amino-8-((3,5-dichlorophenyl)thio)-9H-purin-9-yl)propyl)azetidin-3-ol]
< 4.30 | 5.10 | Nc1ncnc2c1nc(Sc1cc(Cl)cc(Cl)c1)n2CCc1cccnc1 [HJP-V-140, 8-((3,5-dichlorophenyl)thio)-9-(2-(pyridin-3-yl)ethyl)-9H-purin-6-amine]
 | 6.17 | CC(C)NCCCn1c(Sc2cc(Cl)cc(Cl)c2I)nc2c(N)ncnc21 [HJP-V-145]
< 4.30 |  | CC#Cc1cc(Cl)cc(Sc2nc3c(N)ncnc3n2CCCNC(C)C)c1 [HJP-VI-50, 8-((3-chloro-5-(prop-1-yn-1-yl)phenyl)thio)-9-(3-(isopropylamino)propyl)-9H-purin-6-amine]
 | 6.91 | C/C=C(\C)c1cc(Cl)cc(Sc2nc3c(N)ncnc3n2CCCNC(C)C)c1 [HJP-VI-79, (E)-8-((3-(but-2-en-2-yl)-5-chlorophenyl)thio)-9-(3-(isopropylamino)propyl)-9H-purin-6-amine]
< 4.00 |  | C#CCCCn1cnc(N)c2nc(Sc3cc(Cl)cc(Cl)c3)nc1-2 [PU-H41]
